Here are results for one molecule from patent EP2876156A1 (COMMISSARIAT A L'ENERGIE ATOMIQUE ET AUX ENERGIES …, priority 2013, dated 2015).

Common to all, as to assay type: biochemical
One test addresses T1, ENZ4 SEQ ID NO:4 (Catenulispora acidiphila, UniProt C7Q942).
T1 construct: His6 (hexahistidine, inserted after the initial methionine) (N); made in house; host or cells: E. coli BL21(DE3) plysE
T1 sequence (C7Q942 1-343): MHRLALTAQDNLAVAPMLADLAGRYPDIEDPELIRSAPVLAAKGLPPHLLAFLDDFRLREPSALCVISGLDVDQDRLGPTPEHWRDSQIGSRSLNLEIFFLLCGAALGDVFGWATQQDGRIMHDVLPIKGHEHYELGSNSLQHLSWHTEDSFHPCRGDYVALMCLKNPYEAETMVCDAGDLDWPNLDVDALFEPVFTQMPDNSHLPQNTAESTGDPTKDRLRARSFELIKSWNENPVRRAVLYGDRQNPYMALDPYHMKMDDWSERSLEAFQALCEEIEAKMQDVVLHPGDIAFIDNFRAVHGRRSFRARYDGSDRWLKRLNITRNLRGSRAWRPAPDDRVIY
Kind of test: Substrate selectivity screening of hydroxylase (conversion by HPLC after Fmoc-Cl derivatization). Conditions: enzyme 0.08 mg/mL, molar ratio α-ketoglutarate/substrate 15/10, Hepes buffer 50 mM pH 7,5, Mohr's salt 1mM, without sodium ascorbate, room temperature, three hours. On the procedure:
(§1) Enzymatic reaction medium (0.2 µmole, leq.), borate buffer 0,2M pH 7.7 (80 µL) and Fmoc-Cl solution7.5 mM in acetone (100 µL, 0.75 µmole, 3.75 eq) were hand shaked in a closed 1.50 mL eppendorf for one minute. The aqueous layer was extracted with petroleum ether (3*1 mL) to eliminate excess of Fmoc-Cl. 70 µL of the aqueous phase were withdrawn, diluted with 70 µL of acetonitrile and injected into the HPLC. For substrates with two amine functions, 100 µL of Fmoc-Cl solution 15 mM were used.
(§2) Conditions for HPLC analysis: Atlantis® T3 (3 µm 4.5*150 mm) at 35°C with the gradient 50-86% eluent B (MeCN + 0.1% TFA) and eluent A (H2O + 0.1% TFA) in 20 min at 1 mL/min.
(§3) Enzymes (0.08 mg/mL) were screened against substrates (molar ratio α-ketoglutarate/substrate 15/10) in Hepes buffer 50 mM pH 7,5, with Mohr's salt at 1mM and without sodium ascorbate, at room temperature for three hours. The potential conversions of the substrates were determined by HPLC after Fmoc-Cl derivatization as section III here above.

The next test has as its target T2, ENZ1 SEQ ID N°1 (Catenulispora acidiphila, UniProt C7QJ42).
T2 construct: His6 (hexahistidine, inserted after the initial methionine) (N); made in house; host or cells: E. coli BL21(DE3) plysE
T2 sequence (C7QJ42 1-358): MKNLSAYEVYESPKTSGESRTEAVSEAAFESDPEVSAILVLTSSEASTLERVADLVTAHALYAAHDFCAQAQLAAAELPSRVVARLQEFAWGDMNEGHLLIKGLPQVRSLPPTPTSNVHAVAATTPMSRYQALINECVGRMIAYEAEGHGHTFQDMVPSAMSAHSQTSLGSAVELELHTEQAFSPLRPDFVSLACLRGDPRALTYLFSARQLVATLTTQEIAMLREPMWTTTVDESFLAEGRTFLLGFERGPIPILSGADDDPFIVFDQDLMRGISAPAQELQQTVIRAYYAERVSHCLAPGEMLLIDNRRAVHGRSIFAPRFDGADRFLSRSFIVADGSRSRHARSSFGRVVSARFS
The test is described as above. The settings on record: enzyme 0.08 mg/mL, molar ratio α-ketoglutarate/substrate 15/10, Hepes buffer 50 mM pH 7,5, Mohr's salt 1mM, without sodium ascorbate, room temperature, three hours. The procedure:
as §1, §2, §3

Another test has as its target T3, ENZ5 (SEQ ID NO:9) (Niastella koreensis, UniProt G8T8D0).
T3 construct: His6 (hexahistidine, inserted after the initial methionine) (N); made in house; host or cells: E. coli BL21(DE3) plysE
T3 sequence (G8T8D0 1-371): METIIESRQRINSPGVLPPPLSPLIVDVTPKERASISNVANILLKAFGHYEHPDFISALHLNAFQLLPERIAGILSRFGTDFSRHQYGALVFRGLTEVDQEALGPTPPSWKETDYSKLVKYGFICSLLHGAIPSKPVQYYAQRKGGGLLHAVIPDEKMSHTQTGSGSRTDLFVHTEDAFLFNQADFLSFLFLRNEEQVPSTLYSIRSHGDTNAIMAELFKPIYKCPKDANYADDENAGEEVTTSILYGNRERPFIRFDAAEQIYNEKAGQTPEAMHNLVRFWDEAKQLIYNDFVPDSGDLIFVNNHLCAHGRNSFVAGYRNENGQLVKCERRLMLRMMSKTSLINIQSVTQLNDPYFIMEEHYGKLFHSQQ
The test can be described thus: Hydroxylation capability, HPLC analysis of reaction media after derivatization. On the procedure: as §3
(§4) The hydroxylation capability of two other enzymes, namely ENZ6 (SEQ ID NO:10) and ENZ5 (SEQ ID NO:9) were also assessed. The amino sequence of ENZ6 has 79% of amino acid identity with SEQ ID NO:2 of ENZ2 while the amino sequence of ENZ5 has 72% of amino acid identity with SEQ ID NO:3 of ENZ3. […] As shown in part VI, ENZ6 and ENZ5 provide (4R)-hydroxy-L-lysine from L-lysine similarly to ENZ2 and ENZ3. Thus ENZ6 and ENZ5 are likely to have the same substrate selectivity and provide similar products as ENZ2 and ENZ3.

The target in another test is T4, ENZ6 (SEQ ID NO:10) (Flavobacterium sp., UniProt J3BZS6).
T4 construct: His6 (hexahistidine, inserted after the initial methionine) (N); made in house; host or cells: E. coli BL21(DE3) plysE
T4 sequence (J3BZS6 whole entry): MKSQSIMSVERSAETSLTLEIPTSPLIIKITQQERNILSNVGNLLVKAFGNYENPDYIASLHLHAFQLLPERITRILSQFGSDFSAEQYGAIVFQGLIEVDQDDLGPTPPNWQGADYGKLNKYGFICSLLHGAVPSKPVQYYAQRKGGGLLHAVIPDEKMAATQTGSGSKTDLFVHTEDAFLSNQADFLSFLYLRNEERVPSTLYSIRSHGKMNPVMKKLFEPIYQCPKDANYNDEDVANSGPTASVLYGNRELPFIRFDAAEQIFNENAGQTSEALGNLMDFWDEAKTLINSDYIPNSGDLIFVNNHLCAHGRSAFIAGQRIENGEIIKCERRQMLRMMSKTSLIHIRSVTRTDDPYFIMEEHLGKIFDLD
The test is described as above. The procedure:
as §3, §4

Another test addresses T5, ENZ2 (SEQ ID NO:2) (Flavobacterium johnsoniae, UniProt A5FF23).
T5 construct: His6 (hexahistidine, inserted after the initial methionine) (N); made in house; host or cells: E. coli BL21(DE3) plysE
Kind of test: Enzymatic hydroxylation of L-lysine, 10 mL scale, conversion by HPLC (protocol A). The settings on record: with ENZ2 0.086 mg/mL; otherwise as ENZ1 protocol (L-lysine 10 mM, room temperature, 18h). The procedure:
as §1, §2
Enzymatic reaction was carried out in 250 mL glass erlenmeyer flask for a total volume of 4*10 mL. […] The conversion of L-lysine into 3-hydroxy-L-lysine (94%) was determined by HPLC after derivatization with Fmoc-Cl according to protocol A.
The protocol used was the same as that described above for the hydroxylation by ENZ1 except that the enzyme concentrations used were different (ENZ2: 0.086 mg/mL; ENZ3: 0.031 mg/mL). Conversions were determined by HPLC after derivatization with Fmoc-Cl according to protocol A as described above. […]

T5 sequence (A5FF23 whole entry): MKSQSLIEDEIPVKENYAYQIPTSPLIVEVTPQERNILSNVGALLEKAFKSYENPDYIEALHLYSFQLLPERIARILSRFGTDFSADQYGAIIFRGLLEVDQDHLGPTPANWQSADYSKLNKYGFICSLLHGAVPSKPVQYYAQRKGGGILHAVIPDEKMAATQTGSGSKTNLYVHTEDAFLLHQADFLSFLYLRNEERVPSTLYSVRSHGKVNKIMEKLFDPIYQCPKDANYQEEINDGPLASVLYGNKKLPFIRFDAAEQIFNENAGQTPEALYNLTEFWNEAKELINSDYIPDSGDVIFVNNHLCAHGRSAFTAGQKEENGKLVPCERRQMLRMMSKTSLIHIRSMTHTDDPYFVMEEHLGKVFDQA

Turning to `NCCCC[C@H](N)C(=O)O` [L-lysine], on ENZ4 SEQ ID NO:4, the “potential conversions of the substrates, ENZ4 SEQ ID NO:4” value was “negative”. Also, on ENZ1 SEQ ID N°1, the “potential conversions of the substrates, ENZ1 SEQ ID N°1” value is on record as “positive”. Moreover, on ENZ5 (SEQ ID NO:9), the “hydroxylation capability of ENZ5” value is on record as “capable of hydroxylating”. Moreover, on ENZ6 (SEQ ID NO:10), the “hydroxylation capability of ENZ6” value is recorded as “capable of hydroxylating”. Moreover, at ENZ2 (SEQ ID NO:2), the “conversion of L-lysine into (4R)-hydroxy-L-lysine” value worked out at 91%.
